{"source": "PubChem BioAssay AID624317", "about": "(Sanford-Burnham Center for Chemical Genomics, 2012)", "molecular_target": "Probable nicotinate-nucleotide adenylyltransferase (Staphylococcus aureus (strain N315)) (UniProt P65502)", "sequence (P65502 whole entry, looked up)": "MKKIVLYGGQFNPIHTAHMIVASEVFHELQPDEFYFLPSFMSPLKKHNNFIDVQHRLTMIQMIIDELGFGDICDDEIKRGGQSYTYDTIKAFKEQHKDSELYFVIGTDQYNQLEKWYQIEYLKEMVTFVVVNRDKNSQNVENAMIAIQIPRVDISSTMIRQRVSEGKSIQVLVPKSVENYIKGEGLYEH", "assay": "potency of S. aureus NadD blockers – biochemical, colorimetric, uHTS hits, dose response (AID 624317)", "details": "purified NadD enzyme, colorimetric activity assay", "note": "pIC50: −log10 of the molar value.", "data": [{"molecule": "C[c-]1[c-](C)[c-](C)[c-](C)[c-]1C.[Fe].c1cc2nccc(N3CCCC3)[c-]2c1", "note": "(stereo unspecified)", "values": [{"measurement": "pIC50", "value": 4.44}]}]}
